Source: patent publication US20210181179A1, “DIAGNOSIS AND TREATMENT OF IMMUNOTHERAPY-INDUCED NEUROTOXICITY” (MEMORIAL SLOAN KETTERING CANCER CENTER, priority 2018, published 2021)

Columns and labels:
[1] = test system: NMDA receptors; experiment: Western blot of HCN2 neurons for NMDA receptor activation (p-CREB, p-Erk); type: cell-based; details: 30 min, cytokines applied via culture filtrates of stimulated HMC3 microglia
Excerpt: FIGS. 18A-B. Western blot analysis of HCN2 neurons showing NMDA receptor activation through increase in p-CREB levels in response to exposure to conditioned media. The conditioned media was produced by microglia and monocytes treated with cytokines to stimulate quinolinic acid (QUIN) production (FIG. 18A). This effect can be blocked with the use of IDO and AhR inhibitors (FIG. 18B) that block either kynurenine metabolite production or signaling.
QUIN binds directly to NMDA receptors, and leads to Ca^2+ influx, followed by activation cascade through Erk kinase phosphorylation and eventual phosphorylation of CREB transcription factor. In order to test if microglial cell derived QUIN is sufficient to activate NMDA receptors, we performed a co-culture experiment. Culture filtrates from an HMC3 microglial cell line were stimulated with IFNγ, Il1β, or combination of both, and were layered over HCN2 cortical neurons for 30 min, after which the cells were lysed and tested for downstream effectors of NMDA receptor activation.

[2] = test system: HMC3 microglial cell line; experiment: RT-PCR of cytokines and chemokines in microglial cells; type: cell-based, human; details: RT-PCR
Excerpt: FIGS. 19A-E. Kynurenine metabolites contribute to CRS. (FIG. 19A-B) RT-PCR analysis of cytokines and chemokines that lead to myeloid cell activation in response to kynurenine metabolites exposure. ([…]) Western blot analysis of HMC3 microglial cell line in response to kynurenine metabolites exposure. (FIGS. 19D-E.) RT-PCR analysis of cytokines and chemokines in response to exposure to cytokines shown (TNF, Il1β, IFNγ).
CCL2 (MCP1) and CXCL10 (IP10) serve as chemo-attractants for myeloid and T cells, while CXCL9 (MIG) is a potent T cell chemoattractant. […] We confirmed Il1β protein production in response to Il1β stimulation (FIG. 19C). Il1β production was dependent on Ahr activity, as addition of an Ahr antagonist blocked up-regulation of Il1β. Il1β is a strong inducer of microglial activation.

[3] = test system: adult patients with CD19+B-ALL; experiment: Management of neurotoxicity and CRS (tocilizumab, corticosteroid, seizure prophylaxis) in the 19-28z CAR T cell trial; type: in vivo, human
Excerpt: The anti-IL-6 receptor monoclonal antibody, tocilizumab, with or without corticosteroid is often used to mitigate CRS and neurotoxicity. Six (18%) of 33 patients with neurotoxicity received tocilizumab alone; 14 (42%) received tocilizumab plus corticosteroid; 4 (12%) received corticosteroid alone; and 9 (27%) received neither tocilizumab nor corticosteroid (FIG. 6/Supplementary Fig. S1). In the 16 patients with severe neurotoxicity who received tocilizumab, 9 (56.3%) had peak neurotoxicity after the first dose of tocilizumab whereas 7 (43.7%) had peak neurotoxicity prior to or on the day of tocilizumab administration. […] The time from first tocilizumab and/or steroid dose to resolution of neurotoxicity (median, 9 days; range 4-21 days) was longer than the time to resolution of CRS (median, 1 day; range 0-3 days; P<0.001), confirming previous findings that neurotoxicity is less responsive than CRS to these treatment interventions.
Toxicity assessment: CRS was graded according to the MSKCC CRS grading system. Severe CRS was defined as ≥grade 3. Neurotoxicity was prospectively graded according to National Cancer Institute common terminology criteria for adverse events (CTCAE) v4.03 by the principal investigator (P). An independent retrospective review of the electronic medical record was performed by a neurologist (BS) who assigned daily neurotoxicity grades to the AE terms according to CTCAE v4.03. Discrepancies were adjudicated by consensus review. All patients developing neurologic symptoms were evaluated by the neurology consult service and followed with daily neurologic assessments until neurologic symptom resolution. Severe neurotoxicity was defined as ≥grade 3 toxicity with the exception that any seizure (including grade 1 or 2 by CTCAE criteria) was included as severe neurotoxicity.

[4] = early intervention strategy; cited from earlier work

O=C(O)c1cccnc1C(=O)O [quinolinic acid]
p-CREB and p-Erk in cortical neurons [1]: p-CREB and p-Erk upregulation

Il1beta: cytokine
monocyte attracting factors in response to Il1b [2]: strong upregulation of monocyte attracting factors, CCL2, CXCL9 and CXCL19
p-CREB and p-Erk in cortical neurons [1]: p-CREB and p-Erk upregulation

tocilizumab
patients with peak neurotoxicity prior to or on the day of tocilizumab administration ([3]; 7 of 16 patients with severe neurotoxicity who received tocilizumab): 43.7%
patients with peak neurotoxicity after the first dose of tocilizumab ([3]; 9 of 16 patients with severe neurotoxicity who received tocilizumab): 56.3%
response of neurotoxicity to tocilizumab administration ([3]; in most patients): did not respond
time from first tocilizumab and/or steroid dose to resolution of CRS (median) ([3]; range 0-3 days): 1 days
time from first tocilizumab and/or steroid dose to resolution of neurotoxicity (median) ([3]; range 4-21 days): 9 days
serum IL6 after tocilizumab administration ([3]; serum): transient increase of serum IL6
effect on CRS ([3]; tocilizumab therapy alone): readily improved CRS
effect on neurologic symptoms ([3]; tocilizumab therapy alone): did not ameliorate neurologic symptoms
frequency of severe neurotoxicity [4]: did not affect the frequency of severe neurotoxicity
rate of severe CRS [4]: decreased the rate of severe CRS
